Measured values taken from patent US20030176368A1, “Synthesis of epothilones, intermediates thereto and analogues thereof” (priority 2001, published 2003).
Read-outs that look alike come from different tables or passages of the source.

Key:
[1] = Stability on exposure to murine plasma; type: in vitro ADME; conditions: as compared to dEpoB (FIG. 21)
Description: (§1) See Chou et al. Proc. Natl. Acad. Sci. USA 98:8113, 2001, incorporated herein by reference, for details.
(§2) However, the apparently disappointing murine in vivo results should be viewed in the context of reports that dEpoB itself evidenced a degree of bioinstability in murine plasma; yet had much longer plasma half-lives in higher organisms, including humans (Chou et al. J. Proc. Natl. Acad. Sci. USA 98:8113, 2001; incorporated herein by reference). The observed discrepancy in efficacy between mice and other mammals, including humans, has been ascribed to higher esterase levels in rodents.

tubulin = experiment: Tubulin binding: formation of microtubules in the presence of the compounds; type: biochemical
Description: Indeed, the microtubule stabilizing ability closely parallels the observed cytotoxicity data.

CCRF-CEM/VBL100 = experiment: XTT cytotoxicity assay, vinblastine-resistant CCRF-CEM/VBL100 cells; type: cell-based, human; conditions: Homo sapiens, CCRF-CEM
Protocol: (§3) XTT assay following 72 h inhibition. CCRF-CEM is a human T-cell acute lymphoblastic leukemia cell line. The CCRF-CEM/VBL100, CCRF-CEM/VM1, and CCRF-CEM/Taxol cell lines all overexpress P-glycoprotein and display a multidrug resistance phenotype to MDR-associated oncolytics. (Chou et al. Proc. Natl. Acad. Sci. USA 98:8113, 2001; incorporated herein by reference).
(§4) A typical experiment invovles culturing cells (e.g., CCRF-CEM) at an initial density of 2-5×10^4 cells per ml. They are maintained in a 5% CO2-humidified atmosphere at 37° C. in RPMI medium 1640 (GIBCO/BRL) containing penicillin (100 units/ml), streptomycin (100 μg/ml) (GIBCO/BRL), and 5% heat-inactivated fetal bovine serum. For cells that were grown in suspension (such as CCRF-CEM and its sublines), cytotoxicitiy is measured by using the 2,-3-bis(2-methoxy-4-nitro-5-sulfophenyl)-5 carboxanilide)-2H terazodium hydroxide (XTT)-microculture tetrazonium method in duplicate in 96-well microtiter plates. For both methods, the absorbance of each well is measured with a microplate reader (EL-340, Bio-Tek, Burlington, Vt.). Each run entails six or seven concentrations of the tested drugs. Dose-effect relationship data are analyzed with the median-effect plot.
(§5) The CCRF-CEM human T cells, acute lymphoblastic leukemic cells, its teniposide-resistant subline (CCRF-CEM/VM1) and vinblastine-resistant subline (CCRF-CEM/VBL100) are obtained from W. T. Beck (University of Illinois, Chicago, Ill.).

CCRF-CEM/VM1 = experiment: XTT cytotoxicity assay, teniposide-resistant CCRF-CEM/VM1 cells; type: cell-based, human; conditions: Homo sapiens, CCRF-CEM
Protocol: as §3, §4, §5

[2] = system: human mammary carcinoma MX-1; experiment: Tumor xenograft in nude mice, 6 hr i.v. infusion; type: in vivo; conditions: as compared to control mice, MX-1 xenograft, listed as epothilone 490
Protocol: Athymic nude mice bearing the nu/nu gene are typically used for tumor xenografts. Outbred, Swiss-background mice were obtained from Charles River Laboratories. Male mice 8 weeks or older weighing 22 g and up were used for most experiments. The drug was administered via the tail vein for 6 hr.—i.v. infusion. Each individual mouse was confined in a perforated Falcon polypropylene tube restrainer for drug administration. Tumor volume was assessed by measuring length×width×height (or width) using a caliper. The programmable Harvard PHD2000 syringe pump (Harvard Apparatus) with multi-track was used for i.v. infusion. All animal studies were conducted in accordance with the guidelines of the National Institutes of Health “Guide for the Care and Use of Animals” and the protocol approved by the Memorial Sloan-Kettering Cancer Center's Institutional Animal Care and Use Committee. In keeping with the policy of this committee for the humane treatment of tumor-bearing animals, mice were euthanized when tumors reached ≧10% of their total body weight.
As depicted in FIGS. 14, 15, 16, and 17, Epo490 was tested in nude mice bearing human mammary carcinoma MX-1 following treatment with Epo490 or dEpoB (i.v. infusions for 6 hours). […] Tumor size and body weight were then measured using dosages of 30 mg/kg, 40 mg/kg or 50 mg/kg over 32 and 50 days.

CCRF-CEM = experiment: XTT cytotoxicity assay, CCRF-CEM cells; type: cell-based, human; conditions: for IC50: Homo sapiens, CCRF-CEM
Protocol: as §3, §4, §5

[3] = Stability on exposure to human plasma; type: in vitro ADME
Description: as §1, §2

CCRF-CEM/Taxol = experiment: XTT cytotoxicity assay, taxol-resistant CCRF-CEM/Taxol cells; type: cell-based, human; conditions: for IC50: Homo sapiens, CCRF-CEM
Protocol: as §3, §4

CC1=C/C[C@@H](/C(C)=C/c2csc(C)n2)OC(=O)C[C@H](O)C(C)(C)C(=O)[C@H](C)[C@@H](O)[C@@H](C)C\C=C\1 [Epo490, 10,11-dehydro-12,13-desoxyepothilone B]
degradation in murine plasma [1]: faster degradation
% Tubulin Binding (tubulin; Example 5 Table 1): 89%
% Tubulin Binding (tubulin; Microtubules formed in the presence of dEpoB is defined as 100%): 89%
IC50 (CCRF-CEM/VBL100; Example 5 Table 1, 72 h inhibition, read-out: In vitro Cytotoxicities (IC50) C/VBL100): 91 nM
IC50 (CCRF-CEM/VBL100; Example 9 table, read-out: Cell Growth Inhibition (IC50) CCRF-CEM/VBL): 23 nM
IC50 (CCRF-CEM/VBL100; Example 11 Table 2, XTT assay following 72-h inhibition, read-out: In Vitro Cytotoxicities (IC50) CCRF-CEM/VBL100): 91 nM
IC50 (CCRF-CEM/VM1; Example 5 Table 1, 72 h inhibition, read-out: In vitro Cytotoxicities (IC50) C/VM1): 35 nM
IC50 (CCRF-CEM/VM1; Example 11 Table 2, XTT assay following 72-h inhibition, read-out: In Vitro Cytotoxicities (IC50) CCRF-CEM/VMI): 35 nM
inhibitory effect on the growth of the implanted tumors [2]: did not demonstrate a statistically significant inhibitory effect
activity in CCRF-CEM cell lines (CCRF-CEM; Example 12, in words): demonstrated activity
IC50 (CCRF-CEM; Example 5 Table 1, 72 h inhibition, read-out: In vitro Cytotoxicities (IC50) CCRF-CEM(C)): 25 nM
IC50 (CCRF-CEM; Example 9 table, read-out: Cell Growth Inhibition (IC50) CCRF-CEM): 9 nM
IC50 (CCRF-CEM; Example 11 Table 2, XTT assay following 72-h inhibition, read-out: In Vitro Cytotoxicities (IC50) CCRF-CEM): 25 nM
stability in human versus nude mice plasma ([3]; FIG. 21 legend): increased stability
degradation in human plasma ([3]; after more than 3 hours of exposure in human plasma): no measurable degradation
activity in CCRF-CEM cell lines resistant to Taxol (CCRF-CEM/Taxol; Example 12, in words): demonstrated activity
IC50 (CCRF-CEM/Taxol; Example 5 Table 1, 72 h inhibition, read-out: In vitro Cytotoxicities (IC50) C/Taxol): 32 nM
IC50 (CCRF-CEM/Taxol; Example 9 table, read-out: Cell Growth Inhibition (IC50) CCRF-CEM/taxol): 13 nM
IC50 (CCRF-CEM/Taxol; Example 11 Table 2, XTT assay following 72-h inhibition, read-out: In Vitro Cytotoxicities (IC50) CCRF-CEM/TAXOL): 32 nM
